Common to all, as to format: functional
In test [1] the test system is Micrococcus flavus. Put plainly: Antibacterial activity against Micrococcus flavus ATCC 10240 by microdilution method. (Dilution methods test growth across graded concentrations, often in twofold steps.)
For test [2], the system named is Micrococcus flavus. Put plainly: Bactericidal activity against Micrococcus flavus ATCC 10240 by microdilution method.
The subject of test [3] is Listeria monocytogenes. Put plainly: Antibacterial activity against Listeria monocytogenes NCTC 7973 by microdilution method.
The test system of test [4] is Listeria monocytogenes. Put plainly: Bactericidal activity against Listeria monocytogenes NCTC 7973 by microdilution method.
Test [5] has as its system Pseudomonas aeruginosa. Put plainly: Antibacterial activity against Pseudomonas aeruginosa ATCC 27853 by microdilution method.
Test [6] relates to Pseudomonas aeruginosa. Put plainly: Bactericidal activity against Pseudomonas aeruginosa ATCC 27853 by microdilution method.
Test [7] concerns Escherichia coli. Put plainly: Antibacterial activity against Escherichia coli ATCC 35210 by microdilution method.
Test [8] has as its system Escherichia coli. Put plainly: Bactericidal activity against Escherichia coli ATCC 35210 by microdilution method.
For test [9], the system named is Pseudomonas aeruginosa. Put plainly: Antibiofilm activity against Pseudomonas aeruginosa PAO1 assessed as inhibition of biofilm formation at 0.5 times MIC incubated for 24 hrs by crystal violet staining based ELISA method.
The subject of test [10] is Pseudomonas aeruginosa. Put plainly: Antibiofilm activity against Pseudomonas aeruginosa PAO1 assessed as inhibition of biofilm formation at 0.25 times MIC incubated for 24 hrs by crystal violet staining based ELISA method.
The subject of test [11] is Pseudomonas aeruginosa. Put plainly: Antibiofilm activity against Pseudomonas aeruginosa PAO1 assessed as inhibition of biofilm formation at 0.125 times MIC incubated for 24 hrs by crystal violet staining based ELISA method. For orientation: An ELISA detects its analyte on a solid surface through an enzyme-linked reagent.

This is an account of results in ChEMBL document CHEMBL4392886, “Antibacterial and Antibiofilm Activity of Flavonoid and Saponin Derivatives from Atriplex tatarica against Pseudomonas aeruginosa” (2019).

Values after ≈ are worked out from the molar mass of the structure shown. Active and inactive are the calls of the source.

As to `CC1(C)[C@@H](O[C@H]2OC[C@H](O)[C@H](O)[C@H]2O[C@H]2O[C@H](CO)[C@@H](O)[C@H](O)[C@H]2O[C@H]2O[C@H](CO)[C@@H](O)[C@H](O)[C@H]2O)CC[C@]2(C)[C@H]3CC=C4[C@@H]5C[C@@](C)(C=O)CC[C@]5(C(=O)O[C@H]5O[C@H](CO)[C@@H](O)[C@H](O)[C@H]5O)CC[C@@]4(C)[C@]3(C)CC[C@@H]12`, the MIC in the test with Micrococcus flavus [1] was 919 µM (≈ 1000 µg/mL); with Listeria monocytogenes [3], 1150 µM (≈ 1250 µg/mL); in the test on Pseudomonas aeruginosa [5], 689 µM (≈ 751 µg/mL); in the test on Escherichia coli [7] it was 919 µM (≈ 1000 µg/mL). The MBC against Micrococcus flavus [2] stood at 1380 µM (≈ 1500 µg/mL); against Listeria monocytogenes [4], 1840 µM (≈ 2000 µg/mL); against Pseudomonas aeruginosa [6], 1380 µM (≈ 1500 µg/mL); in the test on Escherichia coli [8], 1380 µM (≈ 1500 µg/mL). Also, the “inhibition (INH)” value is reported as 53.4% in the test with Pseudomonas aeruginosa [9] and 39.4% in the test on Pseudomonas aeruginosa [10]. Also, the inhibition entry in the test with Pseudomonas aeruginosa [11] is “inactive”.
For the molecule `COc1cc(/C=C/C(=O)OC[C@@]2(O)CO[C@@H](O[C@H]3[C@@H](Oc4c(-c5ccc(O)c(O)c5)oc5cc(O)c(OC)c(O)c5c4=O)O[C@H](CO)[C@@H](O)[C@@H]3O)[C@@H]2O)ccc1O`, the MIC was 312 µM (≈ 250 µg/mL) with Micrococcus flavus [1], 935 µM (≈ 751 µg/mL) with Listeria monocytogenes [3], 312 µM (≈ 250 µg/mL) against Pseudomonas aeruginosa [5] and 499 µM (≈ 400 µg/mL) against Escherichia coli [7]. Also, the MBC came to 623 µM (≈ 500 µg/mL) against Micrococcus flavus [2], 1250 µM (≈ 1000 µg/mL) with Listeria monocytogenes [4], 623 µM (≈ 500 µg/mL) against Pseudomonas aeruginosa [6] and 623 µM (≈ 500 µg/mL) in the test with Escherichia coli [8]. For the same molecule, the “inhibition (INH)” value in the test with Pseudomonas aeruginosa [9] is listed as 20.1%; in the test on Pseudomonas aeruginosa [10] it was 4.3%. Moreover, in the test with Pseudomonas aeruginosa [11], the inhibition result was “inactive”.
For `CN[C@@H]1[C@H](O[C@H]2[C@H](O[C@H]3[C@H](O)[C@@H](O)[C@H](N=C(N)N)[C@@H](O)[C@@H]3N=C(N)N)O[C@@H](C)[C@]2(O)C=O)O[C@@H](CO)[C@H](O)[C@H]1O` [STREPTOMYCIN], the MIC in the test with Micrococcus flavus [1], with Listeria monocytogenes [3], with Pseudomonas aeruginosa [5] and against Escherichia coli [7] was 344 µM (≈ 200 µg/mL) in each case. Besides, the MBC against Micrococcus flavus [2], against Listeria monocytogenes [4], in the test with Pseudomonas aeruginosa [6] and against Escherichia coli [8] was 516 µM (≈ 300 µg/mL) each time. Also, the “inhibition (INH)” value worked out at 52.5% with Pseudomonas aeruginosa [9], 74.6% in the test with Pseudomonas aeruginosa [10] and 89.3% with Pseudomonas aeruginosa [11].
For the molecule `CC1(C)[C@@H](O[C@H]2OC[C@H](O)[C@H](O)[C@H]2O[C@H]2O[C@H](CO)[C@@H](O)[C@H](O)[C@H]2OS(=O)(=O)O)CC[C@]2(C)[C@H]3CC=C4[C@@H]5C[C@@](C)(C=O)CC[C@]5(C(=O)O[C@H]5O[C@H](CO)[C@@H](O)[C@H](O)[C@H]5O)CC[C@@]4(C)[C@]3(C)CC[C@@H]12`, the MIC is 596 µM (≈ 601 µg/mL) in the test on Micrococcus flavus [1], 1990 µM (≈ 2000 µg/mL) in the test on Listeria monocytogenes [3], 994 µM (≈ 1000 µg/mL) in the test on Pseudomonas aeruginosa [5] and 497 µM (≈ 501 µg/mL) with Escherichia coli [7]. Besides, the MBC against Micrococcus flavus [2] worked out at 1190 µM (≈ 1200 µg/mL); in the test with Listeria monocytogenes [4], 2490 µM (≈ 2500 µg/mL); in the test with Pseudomonas aeruginosa [6], 1190 µM (≈ 1200 µg/mL); in the test with Escherichia coli [8] it was 596 µM (≈ 601 µg/mL). The “inhibition (INH)” value with Pseudomonas aeruginosa [9] is given as 56.6%; with Pseudomonas aeruginosa [10], 45.9%; in the test on Pseudomonas aeruginosa [11] it was 7.2%.
Consider `COc1c(O)cc2oc(-c3ccc(O)c(O)c3)c(O[C@H]3O[C@H](CO)[C@@H](O)[C@H](O)[C@H]3O[C@@H]3OC[C@](O)(CO)[C@H]3O)c(=O)c2c1O`, for which the minimal inhibitory concentration (MIC) against Micrococcus flavus [1] stood at 399 µM (≈ 250 µg/mL); in the test on Listeria monocytogenes [3] it was 639 µM (≈ 400 µg/mL); with Pseudomonas aeruginosa [5], 399 µM (≈ 250 µg/mL); against Escherichia coli [7], 399 µM (≈ 250 µg/mL). Moreover, the MBC in the test with Micrococcus flavus [2] was determined as 639 µM (≈ 400 µg/mL); in the test with Listeria monocytogenes [4] it was 1200 µM (≈ 751 µg/mL); in the test with Pseudomonas aeruginosa [6] it was 639 µM (≈ 400 µg/mL); in the test on Escherichia coli [8], 639 µM (≈ 400 µg/mL). The “inhibition (INH)” value in the test on Pseudomonas aeruginosa [9] was 58.1%; in the test with Pseudomonas aeruginosa [10] it was 12.2%. Also, the inhibition result in the test with Pseudomonas aeruginosa [11] is “inactive”.
The molecule `CC1(C)[C@@H](O[C@H]2OC[C@H](O)[C@H](O)[C@H]2O[C@H]2O[C@H](CO)[C@@H](O)[C@H](O)[C@H]2OS(=O)(=O)O)CC[C@]2(C)[C@H]3CC=C4[C@@H]5C[C@@](C)(CO)CC[C@]5(C(=O)O[C@H]5O[C@H](CO)[C@@H](O)[C@H](O)[C@H]5O)CC[C@@]4(C)[C@]3(C)CC[C@@H]12` displayed an MIC against Pseudomonas aeruginosa [5] of 496 µM (≈ 501 µg/mL). Further, the MBC against Pseudomonas aeruginosa [6] was 744 µM (≈ 751 µg/mL). The “inhibition (INH)” value came to 26.5% in the test with Pseudomonas aeruginosa [9], 21.9% in the test with Pseudomonas aeruginosa [10] and 12.5% in the test on Pseudomonas aeruginosa [11].
Take `COc1cc(/C=C/C(=O)O[C@H]2[C@H](O[C@H]3[C@@H](Oc4c(-c5ccc(O)c(O)c5)oc5cc(O)c(OC)c(O)c5c4=O)O[C@H](CO)[C@@H](O)[C@@H]3O)O[C@@H](C(=O)O)[C@@H](O)[C@@H]2O)ccc1O`: the MIC with Micrococcus flavus [1] stood at 296 µM (≈ 250 µg/mL); with Listeria monocytogenes [3], 886 µM (≈ 751 µg/mL); against Pseudomonas aeruginosa [5], 296 µM (≈ 250 µg/mL); in the test with Escherichia coli [7] it was 591 µM (≈ 500 µg/mL). The MBC with Micrococcus flavus [2] was 473 µM (≈ 400 µg/mL); against Listeria monocytogenes [4] it was 1180 µM (≈ 1000 µg/mL); against Pseudomonas aeruginosa [6], 473 µM (≈ 400 µg/mL); against Escherichia coli [8] it was 1180 µM (≈ 1000 µg/mL). For the same molecule, the “inhibition (INH)” value turned out to be 43% in the test on Pseudomonas aeruginosa [9], 26.2% in the test on Pseudomonas aeruginosa [10] and 1.8% with Pseudomonas aeruginosa [11].
As for `CC1(C)S[C@@H]2[C@H](NC(=O)[C@H](N)c3ccccc3)C(=O)N2[C@H]1C(=O)O` [AMPICILLIN], the MIC was 716 µM (≈ 250 µg/mL) against Micrococcus flavus [1], 1150 µM (≈ 400 µg/mL) with Listeria monocytogenes [3], 2150 µM (≈ 751 µg/mL) with Pseudomonas aeruginosa [5] and 716 µM (≈ 250 µg/mL) against Escherichia coli [7]. Moreover, the MBC came to 1150 µM (≈ 400 µg/mL) against Micrococcus flavus [2], 1430 µM (≈ 501 µg/mL) with Listeria monocytogenes [4], 3580 µM (≈ 1250 µg/mL) in the test with Pseudomonas aeruginosa [6] and 1430 µM (≈ 501 µg/mL) in the test on Escherichia coli [8]. For the same molecule, the figures for the “inhibition (INH)” value with Pseudomonas aeruginosa [9], with Pseudomonas aeruginosa [10] and with Pseudomonas aeruginosa [11] were 65.3%, 58.9% and 85.2%, respectively.

Broadly, the MIC is the lowest concentration that inhibits growth of the organism. Higher therefore signals a need for much substance. The term MBC denotes the smallest concentration meeting the test's criterion for killing.
